Experimental data as given in PubChem BioAssay (NCI).
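Five compound concentrations were applied to cells in 96-well plates for 48 hours; endpoints were derived by simple linear interpolation of the resulting dose-response curve. Here, GI50 denotes the concentration required for 50% inhibition of growth. The concentration for full growth arrest is given as TGI.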

Experiments:
Assay in all cases: growth of human tumour cells (NCI), 48 h
OVCAR-5 ovarian = system: OVCAR-5 ovarian
COLO 205 colon = system: COLO 205 colon
UACC-62 melanoma = system: UACC-62 melanoma
SF-539 CNS = system: SF-539 CNS
MALME-3M melanoma = system: MALME-3M melanoma
HT29 colon = system: HT29 colon
RXF 393 renal = system: RXF 393 renal
SK-OV-3 ovarian = system: SK-OV-3 ovarian
SK-MEL-5 melanoma = system: SK-MEL-5 melanoma
SN12C renal = system: SN12C renal
786-0 renal = system: 786-0 renal
SNB-75 CNS = system: SNB-75 CNS
DU-145 prostate = system: DU-145 prostate
HS 578T breast = system: HS 578T breast
MDA-MB-435 = system: MDA-MB-435
EKVX NSCLC = system: EKVX NSCLC
ACHN renal = system: ACHN renal
OVCAR-8 ovarian = system: OVCAR-8 ovarian
HCC-2998 colon = system: HCC-2998 colon
NCI-H226 lung = system: NCI-H226 lung
IGROV1 ovarian = system: IGROV1 ovarian
MOLT-4 leukemia = system: MOLT-4 leukemia
U251 CNS = system: U251 CNS
MDA-MB-231 breast = system: MDA-MB-231 breast
HOP-62 NSCLC = system: HOP-62 NSCLC
SF-295 CNS = system: SF-295 CNS
UO-31 renal = system: UO-31 renal
A549 NSCLC = system: A549 NSCLC
NCI-H522 lung = system: NCI-H522 lung
HCT-15 colon = system: HCT-15 colon
SF-268 CNS = system: SF-268 CNS
SNB-19 CNS = system: SNB-19 CNS
MDA-N = system: MDA-N
PC-3 prostate = system: PC-3 prostate
UACC-257 melanoma = system: UACC-257 melanoma
T-47D breast = system: T-47D breast
M14 melanoma = system: M14 melanoma
TK-10 renal = system: TK-10 renal
BT-549 breast = system: BT-549 breast
K-562 leukemia = system: K-562 leukemia
OVCAR-4 ovarian = system: OVCAR-4 ovarian
CAKI-1 renal = system: CAKI-1 renal
MCF7 breast = system: MCF7 breast
NCI-H460 lung = system: NCI-H460 lung
KM12 colon = system: KM12 colon
A498 renal = system: A498 renal
SR leukemia = system: SR leukemia
SK-MEL-2 melanoma = system: SK-MEL-2 melanoma
OVCAR-3 ovarian = system: OVCAR-3 ovarian
NCI/ADR-RES ovarian = system: NCI/ADR-RES ovarian
HCT-116 colon = system: HCT-116 colon
NCI-H23 lung = system: NCI-H23 lung
CCRF-CEM leukemia = system: CCRF-CEM leukemia
SW-620 colon = system: SW-620 colon
RPMI-8226 leukemia = system: RPMI-8226 leukemia
HOP-92 NSCLC = system: HOP-92 NSCLC
LOX IMVI melanoma = system: LOX IMVI melanoma
SK-MEL-28 melanoma = system: SK-MEL-28 melanoma

c1ccc(-c2cc(-c3cc(-c4ccccc4)n[nH]3)[nH]n2)cc1
TGI (OVCAR-5 ovarian): > 100 µM | TGI (COLO 205 colon): > 100 µM | TGI (UACC-62 melanoma): > 100 µM | TGI (SF-539 CNS): > 100 µM | TGI (MALME-3M melanoma): > 100 µM | TGI (HT29 colon): > 100 µM | TGI (RXF 393 renal): > 100 µM | TGI (SK-OV-3 ovarian): > 100 µM | TGI (SK-MEL-5 melanoma): > 100 µM | TGI (SN12C renal): > 100 µM | TGI (786-0 renal): > 100 µM | TGI (SNB-75 CNS): > 100 µM | TGI (DU-145 prostate): > 100 µM | TGI (HS 578T breast): > 100 µM | TGI (MDA-MB-435): > 100 µM | TGI (EKVX NSCLC): > 100 µM | TGI (ACHN renal): > 100 µM | TGI (OVCAR-8 ovarian): > 100 µM | TGI (HCC-2998 colon): > 100 µM | TGI (NCI-H226 lung): > 100 µM | TGI (IGROV1 ovarian): > 100 µM | TGI (MOLT-4 leukemia): > 100 µM | TGI (U251 CNS): > 100 µM | TGI (MDA-MB-231 breast): > 100 µM | TGI (HOP-62 NSCLC): > 100 µM | TGI (SF-295 CNS): > 100 µM | TGI (UO-31 renal): > 100 µM | TGI (A549 NSCLC): > 100 µM | TGI (NCI-H522 lung): > 100 µM | TGI (HCT-15 colon): > 100 µM | TGI (SF-268 CNS): > 100 µM | TGI (SNB-19 CNS): > 100 µM | TGI (MDA-N): > 100 µM | TGI (PC-3 prostate): > 100 µM | TGI (UACC-257 melanoma): > 100 µM | TGI (T-47D breast): > 100 µM | TGI (M14 melanoma): > 100 µM | TGI (TK-10 renal): > 100 µM | TGI (BT-549 breast): > 100 µM | TGI (K-562 leukemia): > 100 µM | TGI (OVCAR-4 ovarian): > 100 µM | TGI (CAKI-1 renal): > 100 µM | TGI (MCF7 breast): > 100 µM | TGI (NCI-H460 lung): > 100 µM | TGI (KM12 colon): > 100 µM | TGI (A498 renal): > 100 µM | TGI (SR leukemia): > 100 µM | TGI (SK-MEL-2 melanoma): > 100 µM | TGI (OVCAR-3 ovarian): > 100 µM | TGI (NCI/ADR-RES ovarian): > 100 µM | TGI (HCT-116 colon): > 100 µM | TGI (NCI-H23 lung): > 100 µM | TGI (CCRF-CEM leukemia): > 100 µM

COc1cc2cnc3c(c2cc1OC)Cc1cc2c(cc1-3)OCO2
GI50 (OVCAR-5 ovarian): 35.5 µM | TGI (OVCAR-5 ovarian): 77.9 µM | GI50 (COLO 205 colon): < 0.01 µM | TGI (COLO 205 colon): > 100 µM | GI50 (UACC-62 melanoma): < 0.01 µM | TGI (UACC-62 melanoma): 35.1 µM | GI50 (SF-539 CNS): < 0.0132 µM | TGI (SF-539 CNS): 31.8 µM | GI50 (MALME-3M melanoma): < 0.01 µM | TGI (MALME-3M melanoma): 74.9 µM | GI50 (HT29 colon): < 0.01 µM | TGI (HT29 colon): 73.4 µM | GI50 (SW-620 colon): < 0.01 µM | TGI (SW-620 colon): > 100 µM | GI50 (RXF 393 renal): 0.0322 µM | TGI (RXF 393 renal): > 92.5 µM | GI50 (SK-OV-3 ovarian): 0.0203 µM | TGI (SK-OV-3 ovarian): 26 µM | GI50 (SK-MEL-5 melanoma): < 0.01 µM | TGI (SK-MEL-5 melanoma): 5.39 µM | GI50 (SN12C renal): > 100 µM | TGI (SN12C renal): > 100 µM | GI50 (RPMI-8226 leukemia): < 0.01 µM | TGI (RPMI-8226 leukemia): 85.7 µM | GI50 (HOP-92 NSCLC): > 93.6 µM | TGI (HOP-92 NSCLC): > 100 µM | TGI (786-0 renal): > 51.9 µM | GI50 (SNB-75 CNS): 0.0109 µM | TGI (SNB-75 CNS): > 49.3 µM | GI50 (DU-145 prostate): 0.0338 µM | TGI (DU-145 prostate): > 54.1 µM | GI50 (HS 578T breast): < 0.01 µM | TGI (HS 578T breast): > 100 µM | GI50 (EKVX NSCLC): 0.0279 µM | TGI (EKVX NSCLC): 55.9 µM | GI50 (ACHN renal): < 0.0143 µM | TGI (ACHN renal): 19.4 µM | GI50 (OVCAR-8 ovarian): 0.0527 µM | TGI (OVCAR-8 ovarian): > 100 µM | GI50 (HCC-2998 colon): < 0.01 µM | TGI (HCC-2998 colon): 0.0562 µM | GI50 (NCI-H226 lung): 41.1 µM | TGI (NCI-H226 lung): > 95.8 µM | GI50 (IGROV1 ovarian): 0.014 µM | TGI (IGROV1 ovarian): > 62.9 µM | GI50 (MOLT-4 leukemia): < 0.01 µM | TGI (MOLT-4 leukemia): 0.205 µM | GI50 (U251 CNS): < 0.01 µM | TGI (U251 CNS): 0.517 µM | GI50 (MDA-MB-231 breast): 0.179 µM | TGI (MDA-MB-231 breast): > 100 µM | GI50 (HOP-62 NSCLC): < 0.0268 µM | TGI (HOP-62 NSCLC): 17.4 µM | GI50 (SF-295 CNS): < 0.01 µM | TGI (SF-295 CNS): > 37.6 µM | GI50 (UO-31 renal): < 0.0193 µM | TGI (UO-31 renal): > 43.3 µM | GI50 (A549 NSCLC): < 0.0153 µM | TGI (A549 NSCLC): > 54.5 µM | GI50 (NCI-H522 lung): < 0.01 µM | GI50 (LOX IMVI melanoma): 0.576 µM | TGI (LOX IMVI melanoma): > 100 µM | GI50 (HCT-15 colon): < 0.01 µM | TGI (HCT-15 colon): > 100 µM | TGI (SF-268 CNS): 31.3 µM | GI50 (SNB-19 CNS): 0.0486 µM | TGI (SNB-19 CNS): 37.7 µM | GI50 (MDA-N): > 100 µM | TGI (MDA-N): > 100 µM | GI50 (PC-3 prostate): < 0.01 µM | GI50 (T-47D breast): 1.71 µM | TGI (T-47D breast): > 100 µM | GI50 (M14 melanoma): < 0.0113 µM | TGI (M14 melanoma): > 100 µM | GI50 (TK-10 renal): < 0.01 µM | TGI (TK-10 renal): 2.83 µM | GI50 (BT-549 breast): 0.391 µM | TGI (BT-549 breast): 50.2 µM | GI50 (K-562 leukemia): < 0.01 µM | TGI (K-562 leukemia): > 100 µM | GI50 (OVCAR-4 ovarian): 13.6 µM | TGI (OVCAR-4 ovarian): > 62.8 µM | GI50 (CAKI-1 renal): < 0.01 µM | TGI (CAKI-1 renal): > 74.7 µM | GI50 (MCF7 breast): 0.0333 µM | TGI (MCF7 breast): > 81.8 µM | GI50 (NCI-H460 lung): < 0.01 µM | TGI (NCI-H460 lung): 0.034 µM | GI50 (KM12 colon): < 0.01 µM | TGI (KM12 colon): > 100 µM | GI50 (A498 renal): < 0.0183 µM | TGI (A498 renal): 17.8 µM | GI50 (SR leukemia): < 0.01 µM | TGI (SR leukemia): 0.0145 µM | GI50 (NCI/ADR-RES ovarian): < 0.01 µM | TGI (NCI/ADR-RES ovarian): > 81.5 µM | GI50 (SK-MEL-28 melanoma): 1.86 µM | TGI (SK-MEL-28 melanoma): > 100 µM | TGI (HCT-116 colon): > 50.3 µM | TGI (NCI-H23 lung): 24.6 µM | GI50 (CCRF-CEM leukemia): < 0.01 µM | TGI (CCRF-CEM leukemia): 0.0344 µM
